Usually Km stands for the substrate concentration at which the rate is half of its maximum. Usually Vmax stands for the rate approached at saturating substrate. Broadly, the Ki is a measure of affinity in units of concentration, obtained from inhibition or displacement. Low readings indicate tighter binding, high ones weaker binding.

A short description of series [1]: Michaelis-Menten constant was determined. Type of series: ADME.
Series [2] in a line: Maximal rate constant was determined. The class given is ADME.
The target of series [3] is T1, 4-aminobutyrate aminotransferase, mitochondrial (Sus scrofa, UniProt P80147). Description: Compound was tested for inhibitory constant of Gamma-amino-N-butyrate transaminase in pig brain at pH of 8.5 and 25 degree C.
T1 sequence (P80147 whole entry): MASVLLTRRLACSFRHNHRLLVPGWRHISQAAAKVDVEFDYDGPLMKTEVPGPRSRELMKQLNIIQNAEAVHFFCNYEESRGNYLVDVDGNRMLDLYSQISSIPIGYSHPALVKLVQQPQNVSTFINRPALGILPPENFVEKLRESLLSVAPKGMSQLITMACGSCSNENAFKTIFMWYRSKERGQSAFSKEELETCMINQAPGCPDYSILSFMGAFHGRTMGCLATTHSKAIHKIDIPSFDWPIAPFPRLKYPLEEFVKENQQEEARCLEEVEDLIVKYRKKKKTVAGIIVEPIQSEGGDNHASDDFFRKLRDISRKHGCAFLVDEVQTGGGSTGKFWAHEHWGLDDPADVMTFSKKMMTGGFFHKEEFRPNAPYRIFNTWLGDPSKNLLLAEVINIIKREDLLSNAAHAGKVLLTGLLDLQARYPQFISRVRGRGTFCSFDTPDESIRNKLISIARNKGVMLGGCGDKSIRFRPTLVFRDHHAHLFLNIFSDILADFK
For series [4], the target named is 4-aminobutyrate aminotransferase, mitochondrial (Sus scrofa) (UniProt P80147). Description: Compound was tested for inactivation of Gamma-amino-N-butyrate transaminase in pig brain at pH of 6.5.
Sequence of 4-aminobutyrate aminotransferase, mitochondrial (Sus scrofa) (P80147 whole entry): as above
For series [5] the target is unchanged. Description: Compound was tested for inactivation of Gamma-amino-N-butyrate transaminase in pig brain at pH of 8.5 and 25 degree C.
Series [6] concerns the target T1, 4-aminobutyrate aminotransferase, mitochondrial. Description: Compound was tested for inhibitory constant of Gamma-amino-N-butyrate transaminase in pig brain at pH of 6.5.

For `NC/C=C/C(=O)O` [t-4-AMINOCROTONIC ACID (TACA)], the Km in series [1] is 1300 µM. In addition, the Vmax in series [2] was 0.35 µM/min/mg.

With `NC(CF)CCC(=O)O` (stereo not given), the Ki in series [3] worked out at 395 µM; in series [6], 105000 µM. Further, the K inact in series [4] was found to be 0.31 min⁻¹; in series [5], 0.5 min⁻¹.

With `NC(/C=C/C(=O)O)CF` (stereo not given), the K inact in series [4] stood at 0.061 min⁻¹. The same compound had a Ki in series [6] of 2000 µM.

Turning to `NCCCC(=O)O` [GAMMA-AMINOBUTYRIC ACID], the Michaelis-Menten constant (Km) in series [1] is 1100 µM. Moreover, in series [2], the Vmax is 0.14 µM/min/mg.
